According to the NIST ThermoML archive (doi:10.1016/j.jct.2011.02.008):

Experiment: xn = mol fraction of the nth substance listed
Conditions: Liquid, Vibrating tube method

COC(=O)c1ccccc1 [methyl benzoate] + C1CCCCC1
mass density [kg/m3]
Conditions | x1 = 0.0985 | x1 = 0.1963 | x1 = 0.2939 | x1 = 0.3942 | x1 = 0.4955 | x1 = 0.596 | x1 = 0.6975 | x1 = 0.7993 | x1 = 0.8982
278.15 K, 100 kPa | 823.9 | 855.7 | 887.6 | 919.6 | 951.4 | 983.4 | 1014.3 | 1043.9 | 1072.7
278.15 K, 1000 kPa | 824.5 | 856.4 | 888.3 | 920.2 | 952 | 984 | 1014.9 | 1044.4 | 1073.2
278.15 K, 5000 kPa | 827.6 | 859.3 | 891.2 | 923 | 954.8 | 986.7 | 1017.4 | 1046.9 | 1075.6
278.15 K, 10000 kPa | 831.2 | 863 | 894.7 | 926.4 | 958 | 989.9 | 1020.5 | 1049.8 | 1078.5
278.15 K, 15000 kPa | 834.6 | 866.3 | 898 | 929.7 | 961.2 | 993 | 1023.5 | 1052.8 | 1081.3
278.15 K, 20000 kPa | 838 | 869.6 | 901.3 | 932.8 | 964.3 | 996 | 1026.4 | 1055.6 | 1084.1
278.15 K, 25000 kPa | 841.2 | 872.8 | 904.4 | 935.9 | 967.3 | 998.9 | 1029.3 | 1058.3 | 1086.7
278.15 K, 30000 kPa | 844.4 | 875.9 | 907.4 | 938.9 | 970.2 | 1001.7 | 1032 | 1061 | 1089.3
278.15 K, 35000 kPa | 847.4 | 878.9 | 910.4 | 941.8 | 973 | 1004.5 | 1034.7 | 1063.6 | 1091.9
278.15 K, 40000 kPa | 850.5 | 881.8 | 913.3 | 944.6 | 975.8 | 1007.2 | 1037.4 | 1066.2 | 1094.4
278.15 K, 45000 kPa | – | 884.6 | 916.1 | 947.4 | 978.5 | 1009.9 | 1040 | 1068.7 | 1096.9
278.15 K, 50000 kPa | – | 887.4 | 918.8 | 950 | 981.1 | 1012.5 | 1042.5 | 1071.2 | 1099.3
278.15 K, 55000 kPa | – | 890.1 | 921.5 | 952.7 | 983.7 | 1015 | 1045 | 1073.7 | 1101.7
278.15 K, 60000 kPa | – | 892.6 | 923.9 | 955.1 | 986.3 | 1017.4 | 1047.3 | 1075.9 | 1103.8
288.15 K, 100 kPa | 814.3 | 846.1 | 878 | 909.9 | 941.8 | 973.8 | 1004.7 | 1034.2 | 1063.1
288.15 K, 1000 kPa | 815 | 846.9 | 878.7 | 910.6 | 942.4 | 974.5 | 1005.3 | 1034.8 | 1063.7
288.15 K, 5000 kPa | 818.2 | 850 | 881.8 | 913.6 | 945.3 | 976.6 | 1008 | 1037.5 | 1066.2
288.15 K, 10000 kPa | 822 | 853.8 | 885.5 | 917.2 | 948.8 | 980.7 | 1011.3 | 1040.6 | 1069.2
288.15 K, 15000 kPa | 825.8 | 857.4 | 889.1 | 920.7 | 952.2 | 983.9 | 1014.4 | 1043.6 | 1072.2
288.15 K, 20000 kPa | 829.2 | 860.9 | 892.5 | 924 | 955.4 | 987.1 | 1017.5 | 1046.6 | 1075
288.15 K, 25000 kPa | 832.7 | 864.3 | 895.8 | 927.2 | 958.6 | 990.1 | 1020.5 | 1049.5 | 1077.9
288.15 K, 30000 kPa | 836 | 867.5 | 899 | 930.3 | 961.6 | 993.1 | 1023.4 | 1052.3 | 1080.6
288.15 K, 35000 kPa | 839.1 | 870.7 | 902.1 | 933.4 | 964.6 | 996 | 1026.2 | 1055 | 1083.3
288.15 K, 40000 kPa | 842.2 | 873.7 | 905.1 | 936.3 | 967.5 | 998.8 | 1028.9 | 1057.7 | 1085.9
288.15 K, 45000 kPa | 845.2 | 876.7 | 908 | 939.2 | 970.3 | 1001.6 | 1031.6 | 1060.3 | 1088.4
288.15 K, 50000 kPa | 848.1 | 879.6 | 910.9 | 942 | 973 | 1004.3 | 1034.3 | 1062.9 | 1090.9
288.15 K, 55000 kPa | 850.9 | 882.4 | 913.6 | 944.7 | 975.7 | 1006.9 | 1036.8 | 1065.5 | 1093.4
288.15 K, 60000 kPa | 853.5 | 885 | 916.2 | 947.2 | 978.2 | 1009.3 | 1039.2 | 1067.8 | 1095.9
298.15 K, 100 kPa | 804.8 | 836.5 | 868.4 | 900.3 | 932.2 | 964.2 | 995.1 | 1024.7 | 1053.6
298.15 K, 1000 kPa | 805.6 | 837.3 | 869.2 | 901 | 932.9 | 964.9 | 995.8 | 1025.3 | 1054.2
298.15 K, 5000 kPa | 809 | 840.7 | 872.5 | 904.2 | 935.9 | 967.9 | 998.6 | 1028.1 | 1056.9
298.15 K, 10000 kPa | 813.1 | 844.7 | 876.3 | 908 | 939.6 | 971.4 | 1002 | – | –
